In patent US4766046A, “Stabilized liposome/amphotericin composition and method” (priority 1985, dated 1988):
Entries after “also recorded” stand apart in the source; their conditions may differ. Blank lines part the entries; values can stand above or below the compound they belong to.

Tests used:
[1] = cited from earlier work
fungal infections = details: cited from earlier work
[2] = free form; cited from earlier work
[3] = Method: The MLVs which formed were diluted, concentrated by ultrafiltration, and extruded successively through 0.4 and 0.2 micron polycarbonate membranes, as in Example II.
Liposomes were prepared from mixture #1 lipids and 3.5 mole percent AMB, with hydration in either PBS, or in a Tris--HCl buffer containing 5% w/v of one of the following sugars: glucose, mannitol, trehalose, sucrose, lactose, or maltodextrin. The MLVs formed on hydration with the selected aqueous medium were extruded successively through 0.4 and 0.2 micron polycarbonate membranes, diluted with the selected medium, and concentrated to the original volume, according to Example I. The liposome suspensions were frozen against a dry ice/isopropanol mixture and lyophilized at a pressure of about 15 mTorr. The lyophilized material was stored under nitrogen at refrigerator temperature until used, typically at least about 12 hours.
Following storage, each of the lyophilized liposome preparations was resuspended to its prelyophilization volume by addition of distilled water. The samples were agitated briefly to facilitate resuspension, and resuspended samples were examined for liposome size distribution, as above.

SMILES: CC(C)[C@@H](C)/C=C/[C@@H](C)[C@H]1CC[C@H]2C3=CC=C4C[C@@H](O)CC[C@]4(C)[C@H]3CC[C@]12C [Ergosterol]
protective effect in liposomes ([1]; compared with cholesterol (reference 12)): greater protective effect than cholesterol in liposomes

SMILES: C[C@@H]1[C@H](O)[C@@H](C)/C=C/C=C/C=C/C=C/C=C/C=C/C=C/[C@H](O[C@@H]2O[C@H](C)[C@@H](O)[C@H](N)[C@@H]2O)C[C@@H]2O[C@](O)(C[C@@H](O)C[C@@H](O)[C@H](O)CC[C@@H](O)C[C@@H](O)CC(=O)O[C@H]1C)C[C@H](O)[C@H]2C(=O)O [AMB, Amphotericin B]
antifungal activity, in words (fungal infections): effective antifungal agent | LD50 ([1]; earlier studies (references 2-12)): 2 to 3 mg/kg | side effects of free AMB [2]: side effects resulting from red blood cell disruption are observed initially, followed by more serious cardiotoxicity effects; also recorded: Renal toxicity

size stabilization on dehydration and rehydration [3]: good size stabilization
SMILES: O=C[C@H](O)[C@@H](O)[C@H](O)[C@H](O)CO [glucose]

size stabilization on dehydration and rehydration [3]: good size stabilization
SMILES: OC[C@H]1O[C@@](CO)(O[C@H]2O[C@H](CO)[C@@H](O)[C@H](O)[C@H]2O)[C@@H](O)[C@@H]1O [sucrose]
